Assay [1] deals with PETNR. The arrangement: method as in earlier work. As to conditions: PETNR−coenzyme analogue complex; cited from earlier work.
The target in assay [2] is T1, WT PETNR (Enterobacter cloacae, UniProt P71278). Nature of the assay: Stopped-flow FMN reduction (reductive half-reaction, hydride transfer) of WT PETNR by coenzyme. As to conditions: for kobs1 / A2 (amplitude of kobs2 out of total absorbance change) / kobs2: 10 mM NADPH or 25 mM NADH, pH 7.0.
In assay [3] the target is T1, WT PETNR. Nature of the assay: pH dependence of FMN reduction of WT PETNR in MTEN buffer. Also noted: made in house. It is filed as biochemical, Enterobacter Cloacae PB2. As to the method:
(R)-[4-2H]-NADPH at pH 6, pH 7 and pH9 (A) and the corresponding temperature dependencies of the observed primary kinetic isotope effects (B). The measurements were performed in MTEN buffer (50 mM MES, 25 mM Tris, 25 mM ethanola-mine, and 100 mM NaCl), which has a useful buffering capacity and minimal change in ionic strength over the pH range 6-9 in which PETNR is stable; we attempted testing PETNR in pH 5 as well, but the enzyme is unstable at this pH. The observed rate constants of FMN reduction at pH 7 in MTEN buffer are essentially the same to those measured in 50 mM potassium phosphate buffer, pH 7 and similar observation are valid for the KIEs values (Table S3).The rate of FMN reduction is essentially insensitive to pH across the whole temperature range (5-40 °C), and also that KIEs values are essentially not affected by changes in pH (the rate of FMN reduction by (R)-[4-2H]-NADPH is independent of pH as well across all temperatures studied; see Table S3 for extracted thermodynamic parameters). Although these experiments cannot completely exclude any kinetic […]
of H-transfer and protonation (which would lead to pH-dependent rates) which makes it very likely that the observed rate are reporting directly on the H-transfer step.
Table S3. Extracted Thermodynamic Parameters from pH Dependence Studies.
(kJ mol-1) (J mol-1 K-1) (kJ mol-1 K-1)

Assay [4] concerns the target L25A PETNR (Enterobacter cloacae, UniProt P71278, L26A). Conditions: for A2 (amplitude of kobs2 out of total absorbance change) / kobs1 / kobs2: pH 7.0.
Assay [5] has as its target L25I PETNR (Enterobacter cloacae, UniProt P71278, L26I). Conditions: for kobs1 / A2 (amplitude of kobs2 out of total absorbance change) / kobs2: 10 mM NADPH or 25 mM NADH, pH 7.0.
[6] abbreviates: 25 °C, 50 mM potassium phosphate pH 7.0, 20 μM enzyme.
Setting [7] is: 25 °C, 50 mM potassium phosphate pH 7.0, 20 μM enzyme, fast phase.
[8] abbreviates: T0 = 298 K, fit of kobs1 (5–40 °C) to eq 1.
[9] abbreviates: 5 °C, 10 mM NADPH or 25 mM NADH.
[10] abbreviates: 10 °C, 10 mM NADPH or 25 mM NADH.
The mark [11] stands for this setting: 20 °C, 10 mM NADPH or 25 mM NADH.
Setting [12] is: 25 °C, 10 mM NADPH or 25 mM NADH.
The mark [13] stands for this setting: 30 °C, 10 mM NADPH or 25 mM NADH.
[14] abbreviates: 35 °C, 10 mM NADPH or 25 mM NADH.
Where [15] appears, read: 40 °C, third phase, 10 mM NADPH or 25 mM NADH.
Where [16] appears, read: 40 °C, 10 mM NADPH or 25 mM NADH.

Like-named read-outs stand apart in the source and are kept apart here.

For orientation: Kd means a measure of binding affinity in units of concentration.

Sequence of L25I PETNR (P71278 entry or part of it L26I): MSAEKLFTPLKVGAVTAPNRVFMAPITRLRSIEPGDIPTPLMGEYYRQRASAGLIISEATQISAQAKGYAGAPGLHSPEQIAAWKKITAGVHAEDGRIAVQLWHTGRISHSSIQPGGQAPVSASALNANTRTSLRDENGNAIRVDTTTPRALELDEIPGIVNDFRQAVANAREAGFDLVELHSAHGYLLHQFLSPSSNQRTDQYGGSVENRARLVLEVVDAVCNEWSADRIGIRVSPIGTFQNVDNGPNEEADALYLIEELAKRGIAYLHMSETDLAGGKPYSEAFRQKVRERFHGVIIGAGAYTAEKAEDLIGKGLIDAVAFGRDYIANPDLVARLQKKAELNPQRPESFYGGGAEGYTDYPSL
Sequence of L25A PETNR (P71278 entry or part of it L26A): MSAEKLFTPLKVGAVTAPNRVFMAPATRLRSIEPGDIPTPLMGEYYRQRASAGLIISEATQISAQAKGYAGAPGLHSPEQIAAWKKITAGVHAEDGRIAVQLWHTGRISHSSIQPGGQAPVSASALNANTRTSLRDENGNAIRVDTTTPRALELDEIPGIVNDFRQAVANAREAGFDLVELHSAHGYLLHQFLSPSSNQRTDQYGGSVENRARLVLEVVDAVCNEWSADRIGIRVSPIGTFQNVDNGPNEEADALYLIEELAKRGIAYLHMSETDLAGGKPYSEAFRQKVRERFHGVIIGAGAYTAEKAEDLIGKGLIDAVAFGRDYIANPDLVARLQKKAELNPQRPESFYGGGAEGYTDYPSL
T1 sequence (P71278 entry or part of it): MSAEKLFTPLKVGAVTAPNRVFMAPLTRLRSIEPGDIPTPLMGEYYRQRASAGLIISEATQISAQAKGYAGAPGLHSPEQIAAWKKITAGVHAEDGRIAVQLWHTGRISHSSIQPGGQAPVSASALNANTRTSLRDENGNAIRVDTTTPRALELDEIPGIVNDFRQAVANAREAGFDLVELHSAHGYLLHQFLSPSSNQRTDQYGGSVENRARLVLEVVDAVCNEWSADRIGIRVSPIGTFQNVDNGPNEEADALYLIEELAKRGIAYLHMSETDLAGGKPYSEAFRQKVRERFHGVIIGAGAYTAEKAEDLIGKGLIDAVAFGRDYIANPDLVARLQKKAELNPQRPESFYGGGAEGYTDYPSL

For the compound `NC(=O)C1=CN([C@@H]2O[C@H](COP(=O)(O)OP(=O)(O)OC[C@H]3O[C@@H](n4cnc5c(N)ncnc54)[C@H](O)[C@@H]3O)[C@@H](O)[C@H]2O)CCC1` [NADH4, 1,4,5,6-tetrahydro-NAD], the Kd in assay [1] was 140 µM.
In the case of `NC(=O)C1=CN([C@@H]2O[C@H](COP(=O)(O)OP(=O)(O)OC[C@H]3O[C@@H](n4cnc5c(N)ncnc54)[C@H](OP(=O)(O)O)[C@@H]3O)[C@@H](O)[C@H]2O)CCC1` [NADPH4], in assay [1], the Kd is 130 µM.
Consider `NC(=O)C1=CN([C@@H]2O[C@H](COP(=O)(O)OP(=O)(O)OC[C@H]3O[C@@H](n4cnc5c(N)ncnc54)[C@H](OP(=O)(O)O)[C@@H]3O)[C@@H](O)[C@H]2O)C=CC1` [NADPH], for which the kobs1 worked out at 11.31 ± 0.09 s⁻¹ in assay [2] (5 °C); 15.23 ± 0.15 s⁻¹ in assay [2] (10 °C); 20.32 ± 0.25 s⁻¹ in assay [2] (15 °C); 26.28 ± 0.31 s⁻¹ in assay [2] (20 °C); 33.74 ± 0.46 s⁻¹ in assay [2] (25 °C); 50.46 ± 0.75 s⁻¹ in assay [2] (35 °C). Moreover, the kobs1 in assay [2] (40 °C) came out at 58.49 ± 0.50 s⁻¹; in assay [4] (setting [9]), 19.18 ± 0.22 s⁻¹; in assay [4] (setting [10]), 26.03 ± 0.17 s⁻¹; in assay [4] (15 °C, 10 mM NADPH or 25 mM NADH) it was 34.93 ± 1.25 s⁻¹; in assay [4] (setting [12]), 53.77 ± 1.15 s⁻¹; in assay [4] (setting [13]), 59.63 ± 2.29 s⁻¹. The kobs1 was 68.39 ± 8.69 s⁻¹ in assay [4] (setting [14]); 71.16 ± 6.56 s⁻¹ in assay [4] (setting [16]); 10.12 ± 0.04 s⁻¹ in assay [5] (5 °C); 13.47 ± 0.06 s⁻¹ in assay [5] (10 °C); 18.07 ± 0.05 s⁻¹ in assay [5] (15 °C); 24.33 ± 0.52 s⁻¹ in assay [5] (20 °C). Moreover, the kobs1 in assay [5] (25 °C) is 30.24 ± 0.42 s⁻¹; in assay [5] (30 °C), 36.74 ± 0.28 s⁻¹; in assay [5] (40 °C) it was 49.82 ± 1.14 s⁻¹. For the same compound, the KS in assay [2] (setting [6]) amounted to 103 ± 4 µM; in assay [5] (setting [6]), 130 ± 8 µM. The kred in assay [2] (setting [7]) came out at 33.43 ± 0.22 s^–1; in assay [4] (setting [7]), 55.75 ± 0.35 s^–1; in assay [5] (setting [7]) it was 29.49 ± 0.49 s^–1. In addition, the “A2 (amplitude of kobs2 out of total absorbance change)” value in assay [2] (35 °C) is 1.41 ± 0.23%; in assay [2] (40 °C), 2.29 ± 0.35%; in assay [4] (setting [9]), 2.93 ± 0.55%; in assay [4] (setting [10]) it was 2.70 ± 0.56%; in assay [4] (setting [11]), 3.58 ± 0.47%; in assay [4] (setting [12]) it was 4.73 ± 0.26%. Moreover, the “A2 (amplitude of kobs2 out of total absorbance change)” value was found to be 7.50 ± 0.21% in assay [4] (setting [13]); 16.48 ± 0.53% in assay [4] (setting [14]); 25.54 ± 0.91% in assay [4] (setting [16]); 3.28 ± 1.62% in assay [5] (20 °C); 5.72 ± 0.36% in assay [5] (35 °C); 10.89 ± 0.63% in assay [5] (40 °C). In addition, the kobs2 turned out to be 1.19 ± 0.92 s⁻¹ in assay [2] (35 °C); 1.09 ± 0.16 s⁻¹ in assay [2] (40 °C); 2.42 ± 0.48 s⁻¹ in assay [4] (setting [11]); 1.54 ± 0.45 s⁻¹ in assay [4] (setting [12]); 0.51 ± 0.17 s⁻¹ in assay [4] (setting [14]); 0.26 ± 0.06 s⁻¹ in assay [4] (setting [16]). In addition, the kobs2 in assay [5] (20 °C) was 2.25 ± 2.63 s⁻¹; in assay [5] (30 °C) it was 2.57 ± 0.62 s⁻¹. The “ΔCp^⧧” value in assay [2] (setting [8]) is “–0.50 ± 0.05 kJ mol^–1 K^–1”; in assay [4] (setting [8]) it was “–0.92 ± 0.12 kJ mol^–1 K^–1”; in assay [5] (setting [8]), “–0.43 ± 0.07 kJ mol^–1 K^–1”. Further, the “ΔHT0^⧧” value in assay [2] (setting [8]) worked out at 30.4 ± 0.3 kJ mol^–1; in assay [4] (setting [8]), 23.3 ± 1.2 kJ mol^–1; in assay [5] (setting [8]), 30.4 ± 0.6 kJ mol^–1. The figures for the “ΔST0^⧧” value in assay [2] (setting [8]), in assay [4] (setting [8]) and in assay [5] (setting [8]) were “–113.9 ± 0.9 J mol^–1 K^–1”, “–133.7 ± 4.1 J mol^–1 K^–1” and “–114.9 ± 2.0 J mol^–1 K^–1”, respectively. The “ΔCp⧧” value in assay [3] (pH 6, MTEN buffer) is reported as -0.58 ± 0.10 kJ mol-1 K-1; in assay [3] (pH 7, MTEN buffer), -0.61 ± 0.08 kJ mol-1 K-1; in assay [3] (pH 9, MTEN buffer) it was -0.45 ± 0.12 kJ mol-1 K-1. In addition, the “ΔHT0⧧” value in assay [3] (pH 6, MTEN buffer) amounted to 6.5 ± 0.14 kcal/mol; in assay [3] (pH 7, MTEN buffer), 6.6 ± 0.17 kcal/mol; in assay [3] (pH 9, MTEN buffer), 6.91 ± 0.17 kcal/mol. For the same compound, the “ΔST0⧧” value is -124.3 ± 2.0 J mol-1 K-1 in assay [3] (pH 6, MTEN buffer); -122.7 ± 1.6 J mol-1 K-1 in assay [3] (pH 7, MTEN buffer); -118.6 ± 2.3 J mol-1 K-1 in assay [3] (pH 9, MTEN buffer). Moreover, the “increase in KS vs WT PETNR” value in assay [4] (25 °C) worked out at 2 fold. For the same compound, the “rate of H-transfer, faster than WT PETNR” value in assay [4] (25 °C, kred vs WT) worked out at 60%. Further, the “A3 (amplitude of third phase)” value in assay [4] (setting [15]) is on record as 19.34 ± 0.54%. In addition, the kobs3 in assay [4] (setting [15]) was determined as 3.55 ± 1.03. The “total absorbance change attributed to kobs2” value in assay [4] (40 °C, sum of two slow phases (kobs2 and kobs3)) is on record as approximately 40%.

Source of the values: PMC6516726 (ACS Catalysis, 2018).
